Results on one compound are retold here after patent US11911396B2, “Use of compound in preparation of drug for treating cerebral small vessel disease” (GUANGZHOU CELLPROTEK PHARMACEUTICAL CO., LTD, priority 2017, dated 2024).

The subject of one experiment is CD163. In words: Immunofluorescence of CD163 in prefrontal cortex brain tissue, acute hypobaric hypoxia model. The experiment is classed as in vivo, cynomolgus monkeys. The following applies: FIGS. 5A and 5B. An excerpt: (§1) FIG. 5. […] A. Immunofluorescence imaging of CD163 and Iba-1 in the brain tissue of cynomolgus monkeys. B. Statistics of relative fluorescence intensity of CD163 and Iba-1. C. Correlation analysis of relative fluorescence intensity of CD163 and Iba-1. NN: Normobaric Normoxia group; HH: Hypobaric Hypoxia group; HH+Triol: Hypobaric Hypoxia with Triol administration group; HH+PROG: Hypobaric Hypoxia with progesterone administration group. One-way ANOVA analysis and Dunnutt's t test were used to perform statistical tests, and in the latter each group was compared with the HH group, ***, p<0.001.
(§2) The thickness of paraffin sections was 5 μm. For fresh paraffin sections, the sections were dried at 37° C. overnight and then dried at 55° C. for 30 minutes. The sections were quickly placed in xylene for dewaxing. After fully dewaxing with xylene for 10 min for 3 times, absolute ethanol-95% ethanol-90% ethanol-80% ethanol-70% ethanol-50% ethanol-ddH2O were successively used for gradient rehydration. After rehydration, the sections were placed in EDTA antigen repair solution for microwave high temperature repair. After the repair was completed, it was allowed naturally cool down to room temperature. […] NIS-Elements Analysis software was used to analyze the fluorescence intensity of confocal images, which was then normalized with the fluorescence intensity per unit area according to the built-in scale. […]

A further experiment relates to Iba1. Nature of the experiment: Immunofluorescence of Iba1 in prefrontal cortex brain tissue, acute hypobaric hypoxia model. The experiment is classed as in vivo, cynomolgus monkeys. The following applies: FIG. 5.
Description: as §1, §2

In the case of `CC(=O)[C@H]1CC[C@H]2[C@@H]3CCC4=CC(=O)CC[C@]4(C)[C@H]3CC[C@]12C` [progesterone, reference compound], the “down-regulation of CD163 expression caused by acute hypobaric hypoxia” value with CD163 is listed as “did not cancel the inhibition”. Besides, the Iba1 expression entry in the experiment on Iba1 is “increased”.
